“Also recorded” adds a separate entry of the source. Where a SMILES comes first, the peptide text is derived from it. [ ]: non-standard residue; d: D form.
What was measured:
S. aureus biofilm = test: Crystal Violet staining of S. aureus biofilm (24 h batch growth); assay type: cell-based, Staphylococcus aureus; conditions: 24 h batch growth in microtiter plates; 0.5% w/v Crystal Violet, absorbance at 550 nm; strain not stated; peptide 80 μM unless otherwise noted
Protocol: We employed two S. aureus strains—SH1000 WT, a rsbU ^+ laboratory strain,[27] and MN8, a clinical strain isolated from the human urogenital tract[28] (Supplementary Table S2). First we confirmed that the cells formed biofilms by batch growth of the bacteria in microtiter plates through staining with Crystal Violet dye after 24 h. Application of our AP90 α-sheet design led to a 54% reduction in biofilm. As crystal violet is a crude measure of the extent of biofilm formation, we assessed amyloid fibril formation in the biofilms by adapting the conventional Thioflavin T (ThT) amyloid fibril assay for use in live cells. After 24 h of batch growth in microtiter plates, the biofilms were washed and incubated with ThT, and the resulting fluorescence signals served as a proxy for the extent of fibril formation in the EM (Fig. 1a). Next, we utilized this assay to test the α-sheet inhibitor designs and control peptides described above (sequences provided in Supplementary Table S1). […]
ThT, an established fluorescent label for amyloid fibrils,[43] was then added to each well at a concentration of 22 μM and biofilms were incubated statically for 4 h at room temperature. […] Fluorescence measurements were corrected by subtracting the background intensity of identical samples without ThT (in the case of the biofilms) or PSMα1 (for the in vitro measurements). […]

[1] = test system: S. aureus MN8 biofilm amyloid; test: ThT fluorescence assay of amyloid in MN8 biofilms; assay type: cell-based, Staphylococcus aureus MN8; conditions: 24 h
Protocol: (§1) Fig. 1 Screening of designed peptides for inhibition of amyloid formation in S. aureus biofilms. a Schematic of protocol for testing designed α-sheet peptides in S. aureus biofilm cultures with an illustration of the main-chain structure of the AP90 α-sheet design. b A panel of designed α-sheet peptides (AP90, AP401, and AP407), as well as random coil (RC) and β-hairpin controls (β), was tested against two S. aureus strains, MN8 (hashed bars) and SH1000 WT (white bars). […] Error bars in b and c represent the standard error of the mean for experiments performed in triplicate […]
(§2) ThT, an established fluorescent label for amyloid fibrils,[43] was then added to each well at a concentration of 22 μM and biofilms were incubated statically for 4 h at room temperature. […] Plates were shaken at high speed for 1 min on a plate shaker to detach any remaining biofilm material and homogenize the samples, which were then transferred to a 96-well black-walled plate (Corning, TC-treated polystyrene) and ThT fluorescence was measured using an excitation wavelength of 438 nm and emission at 495 nm on a Perkin–Elmer Enspire plate reader (hereafter referred to as the plate reader). Fluorescence measurements were corrected by subtracting the background intensity of identical samples without ThT (in the case of the biofilms) or PSMα1 (for the in vitro measurements). […]

[2] = test system: S. aureus SH1000 WT biofilm amyloid; test: ThT fluorescence assay of amyloid in SH1000 WT biofilms; assay type: cell-based, Staphylococcus aureus SH1000 WT; conditions: 80 μM peptide, 24 h, 37 °C
Protocol: as §1, §2

[3] = test system: S. aureus SH1000 WT biofilm PSM amyloid fibrils; test: TEM of biofilms for extracellular fibril deposits; assay type: cell-based, Staphylococcus aureus SH1000 WT; conditions: 80 μM AP90, biofilms grown 24 h
Protocol: To further investigate the ability of designed peptides to inhibit PSM amyloid formation, fluorescent (mCherry) S. aureus MN8 biofilms were grown in culture plates with glass bottom wells with or without α-sheet inhibitors. After 24 h at 37 °C the biofilms were gently rinsed with pipetted saline to remove unattached biomass and the remaining attached cells were fixed and imaged. A robust biofilm formed on the glass at the bottom of each well in LB medium alone (Fig. 2a); in contrast, there was significant disruption of the biofilm in the presence of the α-sheet compounds. […] Quantification of the images is presented in Supplementary Fig. S2. […] Addition of anti-α-sheet peptides triggered a significant reduction in PSM amyloid formation as measured by ThT fluorescence, which presumably weakened the S. aureus biofilms and their attachments by reducing the PSM amyloid fibril content of the EM. […]
Fig. 2 S. aureus biofilm structures become less robust when grown in the presence of designed peptide inhibitors. a S. aureus MN8 + mCherry biofilms were grown on glass substrates for 24 h and then cells were washed and fixed. […] For quantification of the images see Supplementary Fig. S2. b In S. aureus SH1000 WT biofilms grown in regular LB medium, PSM amyloid fibrils were visible as deposits in spaces between cells (left).
Images were analyzed using Gwyddion software (Czech Metrology Institute).

synthetic PSMα1 [4] = test: PSMα1 fibrillization assay with added inhibitors (ThT), water; assay type: biochemical, Staphylococcus aureus; conditions: 30 μM PSMα1, inhibitor at 4:1 molar ratio, 0.34% v/v DMSO in ddH2O, pH 5, 37 °C, ThT 22 μM; SEM of 3–6 replicates; vs peptide-free control
Excerpt: (§3) Two different solvent conditions were used (0.34% DMSO in water, blue bars; LB medium + 0.34% DMSO, red bars) and aggregation was monitored by ThT fluorescence. Inhibition values for each peptide are reported as a percentage of the peptide-free control samples (0% inhibition). […] Fluorescence values in NaCl solution were quite high, so its curve is shown as an inset.

synthetic PSMα1 [5] = test: PSMα1 fibrillization assay with added inhibitors (ThT), LB medium; assay type: biochemical, Staphylococcus aureus; conditions: LB medium + 0.34% DMSO, 37 °C
Excerpt: as §3

PSMα1 [6] = target: T1, PSMα1 (Staphylococcus aureus, UniProt A9JX05); assay type: binding; conditions: fresh (0 h), pre-incubated (48 h) and fibrillar (165 h) PSMα1; 2 h, 25 °C; GndHCl elution; NanoOrange fluorescence; six samples
T1 construct: synthetic PSMα1 (f[…], where f denotes formylation, Ontores Biotechnologies); purchased Ontores Biotechnologies; host or cells: chemical synthesis
Protocol: To further probe the interactions between PSMα1 and the designed α-sheet peptides, we immobilized AP90 on agarose beads and applied solutions of either (a) fresh (completely solubilized), (b) pre-incubated, (allowed to aggregate as in Fig. 6a for 48 h corresponding to α-sheet oligomer species) or (c) fibrillar PSMα1. The bead mixtures were contained within a micro-spin column, so the system was treated as a packed bed reactor and a series of phosphate buffered saline (PBS) washes was used to remove unbound material. The PSMα1 content of each wash was measured with a fluorescence-based assay. PSMα1 bound to immobilized AP90 was eluted with high guanidinium hydrochloride (GndHCl).
Meanwhile, PSMα1 samples were prepared as above (see “PSM fibrillization assay”) and incubated at 37 °C. […] FT and the washes (W1-W7) were analyzed with the NanoOrange® Protein Quantitation Kit (Thermo Fisher Scientific). […] This approach was necessary because elution of bound PSMα1 with GndHCl obscures protein quantification, and unfortunately, the inability to quantify the GndHCl bound fractions prevents confirmation of the mass balance. […]
were alternated with PBS washes (W8-W13). All eluents were then analyzed with the
NanoOrange® Protein Quantitation Kit and fluorescence was used as an indicator of
PSMα1 content in each eluent. Fluorescence measurements were normalized by the […]

PSMα1 [7] = target: T1, PSMα1; test: Biolayer interferometry, AP90 on sensor tip, PSMα1 in solution; assay type: binding; conditions: PSMα1 α-sheet-rich (~48 h) vs α-helix-rich (~0 h) or β-sheet-rich (~150 h)
Protocol: The binding was explored further using biolayer interferometry, which analyzes interference patterns based on adsorption of samples to a biosensor tip.
All biolayer interferometry experiments were performed on a BLItz biosensor system (ForteBio, Pall) using aminopropylsilane (APS) sensors. Sensors were hydrated in ddH2O + 22 μM ThT for 10 min prior to use; ThT was included to mirror the conditions of the corresponding aggregation curves.

[8] = CD spectroscopy of designed and control peptides; assay type: physicochemical; conditions: 100 µM (RC 30 µM), phosphate buffer (β and AP193: acetate buffer), room temperature
Protocol: AP407 is a variant of AP90 with a disulfide bond. […] An unstructured random coil peptide (RC) and a β-sheet hairpin (β) are used as structural controls.[25], [26]
CD spectra of RC, β, AP90, AP401, AP407, and AP193. Peptides were
dissolved to a concentration of 100 µM (except for RC, which was 30 µM) in phosphate
buffer (except for β and AP193, which were in acetate buffer) and spectra were
acquired at room temperature. […] MRE = mean residue ellipticity.

[9] = ref [25]; cited from earlier work
Excerpt: In addition, the structural properties of the peptide provide a benchmark, or spectroscopic signature, for α-sheet structure, which can be used to interpret spectra of amyloid species. The main α-sheet design used here is AP90 (Alternating Peptide #90, referred to as α1 previously, [26]), but we also tested several other designs (Supp ...

T1 sequence (A9JX05 whole entry, looked up): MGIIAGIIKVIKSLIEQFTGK

CSCC[C@H](NC(=O)[C@@H](CCCCN)NC(=O)[C@H](CC(C)C)NC(=O)[C@@H](CC(N)=O)NC(=O)[C@H](CCSC)NC(=O)[C@H](NC(=O)[C@H](Cc1c[nH]c2ccccc12)NC(=O)CNC(=O)[C@H](CO)NC(=O)[C@H](Cc1ccc(O)cc1)NC(=O)[C@H](CCC(=O)O)NC(=O)[C@H](CC(N)=O)NC(=O)[C@H](CCSC)NC(=O)[C@@H](Cc1c[nH]c2ccccc12)NC(=O)[C@H](CO)NC(=O)[C@@H](CC(C)C)NC(=O)[C@H](CC(N)=O)NC(=O)[C@@H](CCSC)NC(=O)[C@H](CCC(=O)O)NC(=O)CNC(=O)[C@H](CCCNC(=N)N)NC(C)=O)[C@H](C)O)C(=O)NCC(=O)N[C@@H](CCCNC(=N)N)C(N)=O [AP90] (Ac-RGE[dM]N[dL]S[dW]MNEYSGW[dT]M[dN]L[dK]MGR-NH2)
reduction in biofilm (Crystal Violet) (S. aureus biofilm): 54%
effect on amyloid fibril formation (ThT), in words ([1]; 80 μM peptide, 37 °C, effect particularly for the MN8 clinical isolate): significant reduction in amyloid fibril formation
dose-response of biofilm amyloid content (ThT), in words ([1]; increasing concentrations of AP90 in culture medium): fibril formation decreased in a dose-dependent manner; also recorded: significant decrease in EM amyloid content as the concentration of AP90 is increased
effect on amyloid fibril formation (ThT), in words [2]: significant reduction in amyloid fibril formation
reduction of amyloid fibril formation (ThT) ([2]; LB Lennox, ThT 22 μM, ex 438 / em 495 nm, vs peptide-free control, experiments in triplicate): ~ 30%
extracellular PSM fibril deposits by TEM [3]: amyloid fibrils could not be found; also recorded: no extracellular fibril deposits were observed; also recorded: no amyloid fibrils were visible
inhibition of PSMα1 amyloid formation (synthetic PSMα1 [4]): 81 ± 5%
inhibition of PSMα1 fibril formation (synthetic PSMα1 [5]; 30 μM PSMα1, 1:4 PSMα1:inhibitor, ThT 22 μM, SEM of 3–6 replicates, vs peptide-free control): 73 ± 11%
effect on PSMα1 fibril formation, in words (synthetic PSMα1 [5]; 30 μM PSMα1, 1:4 PSMα1:peptide): inhibited fibril formation to nearly the same extent as in water; also recorded: inhibition by AP90 persisted
binding of PSMα1 samples to immobilized AP90 (PSMα1 [6]): more of the oligomer sample bound to the column than fresh or fibrillar material
binding preference by KD, in words (PSMα1 [7]): preferential binding between AP90 and α-sheet-rich PSMα1 (~48 h)
CD spectrum (secondary structure) [8]: featureless spectrum, except for negative ellipticity in the so-called random coil region around 195–200 nm
secondary structure by CD, FTIR and 2D NMR [9]: does not adopt conventional secondary structure

— publication PMC5495782, “Designed α-sheet peptides suppress amyloid formation in Staphylococcus aureus biofilms” (NPJ Biofilms and Microbiomes, 2017)
